According to patent US20060269928A1, “Compositions, methods and apparatus for supercritical fluid virus inactivation” (Aphios Corporation, priority 2005, published 2006):
Values joined by “and” are separate entries in the source; they are usually repeats but may differ in a detail not shown here. Equal values may be shown once. Read-outs that look alike come from different tables or passages of the source. Marks after values point to notes of the source that are not given here.

Key:
HIV-1 p24 = conditions: 3,000 psig, 22 °C, single-stage; for Δp24 [% Change]: versus t & T control
HIV-1Δtat-rev = conditions: 3,000 psig, 22 °C, single-stage; for −Log10 Inactivation: versus time and temperature control; for Log10 TCID50/ml (CFI-treated): virus supernatant diluted 1:10 in RPMI
parvovirus B19 [1] = assay: B19 DNA titre of CFI-treated plasma samples; design: species or system human parvovirus B19; conditions: 206 bars, 4 ml/min
Method: The conditions of different experiments performed for NIBSC, London, England with parvovirus B19-spiked in human plasma samples free of B19 antibodies are recorded in Table 16. […] Five or six samples were produced in each of the six experiments. A 2.5 ml aliquot of the feed was taken at the start of the treatment and stored at 4° C. during the run (named “before”) and a second 2.5 ml sample was placed at the same temperature as the SCoNCF system for the same duration as a control (named “time and temperature”). Once the system (isobaric chamber, connecting lines, valves and gauges) was pressurized with the supercritical fluid, the sample was pumped through the isobaric chamber at the rate of 4 ml/min. […] Finally, the system was depressurized to atmospheric pressure (1.01 bars).

[2] = tested on: encephalomyocarditis (EMC) virus; format: cell-based
parvovirus B19 [3] = assay: B19 infectivity assay of CFI-treated plasma samples; format: cell-based, human parvovirus B19; conditions: 206 bars; for Infectious Units per ml, CFI-Treated Samples: 4 ml/min
[4] = tested on: murine leukemia virus (MuLV); assay: SCoNCF CFI inactivation of murine leukemia virus in laminar flow injection unit; format: cell-based, murine-C retrovirus (MuLV); conditions: 2,000 psig, 22 °C, <1 min
[5] = tested on: vesicular stomatitis virus (VSV); format: cell-based; conditions: for −log10 reduction: 4,000 psig, <1 min; for −log10 Kill: 3,000 psig, 50 °C, single stage, matrix FBS
[6] = tested on: Bovine Diarrhea Virus (BVD); format: cell-based
TGE = format: cell-based
Human Adenovirus, Type 5 = format: cell-based
Reovirus = format: cell-based
Poliovirus = format: cell-based; conditions: 3,000 psig, 50 °C, single stage, matrix FBS
Sindbis = format: cell-based
Hepatitis A (HAV) virus = format: cell-based
[7] = Expt 02/04: 25 °C, 1 stage, volumetric average of two samples
[8] = Expt 01: 50 °C, 2 stages, human plasma

N#N [N2]
p24 [CFI-treated] (HIV-1 p24): 143 ng/mL | Δp24 [% Change] (HIV-1 p24): +34% | −Log10 Inactivation (HIV-1Δtat-rev): >5.1 | Log10 TCID50/ml (CFI-treated) (HIV-1Δtat-rev): undetected

CCC [C3H8, Propane]
p24 [CFI-treated] (HIV-1 p24): 175 ng/mL | Δp24 [% Change] (HIV-1 p24): +20% | −Log10 Inactivation (HIV-1Δtat-rev): 0.9 | Log10 TCID50/ml (CFI-treated) (HIV-1Δtat-rev): 4.1

O=C=O [CO2, carbon dioxide]
p24 [CFI-treated] (HIV-1 p24): 15 ng/mL | Δp24 [% Change] (HIV-1 p24): +7% | −Log10 Inactivation (HIV-1Δtat-rev): >3.7 | Log10 TCID50/ml (CFI-treated) (HIV-1Δtat-rev): undetected

FC(F)F [Fr-23, trifluoromethane]
B19 DNA Titre (IU/ml), CFI-Treated Samples (parvovirus B19 [1]; [7]): 2.5 × 10^10* IU/ml | p24 [CFI-treated] (HIV-1 p24): 20 ng/mL | Δp24 [% Change] (HIV-1 p24): +43% | EMC inactivated on the average [2]: ~3 logs | Infectious Units per ml, CFI-Treated Samples (parvovirus B19 [3]; [7]): 1.7 × 10^6* Infectious Units per ml | −Log10 Inactivation (HIV-1Δtat-rev): >3.7 | Log10 TCID50/ml (CFI-treated) (HIV-1Δtat-rev): undetected

FC(Cl)C(F)(F)F (stereo not drawn) [Fr-124]
−log10 Kill [2]: 0.5 and 0.4

[N-]=[N+]=O [NITROUS OXIDE, nitrous oxide]
−log10 reduction ([4]; 1 stage): 2.3 and 2.0 | −log10 reduction ([4]; 1 stage, listed as nitrous oxide): about 2 | −log10 reduction ([4]; 2 stages): >5.5 | −log10 reduction ([4]; 2 stages, listed as nitrous oxide): greater than 5.5 | p24 [CFI-treated] (HIV-1 p24): 70 ng/mL | Δp24 [% Change] (HIV-1 p24): +25% | −log10 reduction ([5]; 40 °C, 1 stage): 2.5 | −log10 reduction ([5]; 40 °C, 2 stages): >5.5 | inactivation ([5]; 5,000 psig, 22 °C): ~2 logs | average inactivation ([5]; 5,000 psig, 40 °C): 4 logs | −Log10 Inactivation (HIV-1Δtat-rev): >2.8 | Log10 TCID50/ml (CFI-treated) (HIV-1Δtat-rev): undetected

FC(F)Cl [FREON-22, hydrodifluorochloromethane]
−log10 Kill [6]: 2.3 | B19 DNA Titre (IU/ml), CFI-Treated Samples (parvovirus B19 [1]; [8]): 5 × 10^10 IU/ml | B19 DNA Titre (IU/ml), CFI-Treated Samples (parvovirus B19 [1]; [7]): 2 × 10^11* IU/ml | p24 [CFI-treated] (HIV-1 p24): 112 ng/mL | Δp24 [% Change] (HIV-1 p24): −7% | −log10 Kill (TGE): >2.5 and >2.6 | EMC inactivated on the average [2]: ~6 logs | EMC inactivation on the average [2]: 5.7 logs | increase of inactivation for every 10 °C increase in temperature [2]: ~1 log | −log10 Kill [5]: >6.5 and >6.6 | −log10 Kill ([5]; listed as Freon-22): > 6.6 and > 6.5 | −log10 Kill (Human Adenovirus, Type 5): >5.3 and >5.1 | −log10 Kill (Reovirus): 0.9 and 1.0 | change in infectivity titer compared with the untreated sample (parvovirus B19 [3]; 50 °C, two-stage laminar flow CFI unit): ~2 log10 | Infectious Units per ml, CFI-Treated Samples (parvovirus B19 [3]; [8]): 5 × 10^3 Infectious Units per ml | Infectious Units per ml, CFI-Treated Samples (parvovirus B19 [3]; [7]): 2 × 10^5* Infectious Units per ml | −Log10 Inactivation (HIV-1Δtat-rev): >5.1 | Log10 TCID50/ml (CFI-treated) (HIV-1Δtat-rev): undetected | −log10 Kill (Poliovirus): 4.1 and 4.2 | −log10 Kill (Poliovirus; listed as Freon-22): 4.1 and 4.2 | −log10 Kill (Sindbis): >6.5 | −log10 Kill (Hepatitis A (HAV) virus): 1.3 and 1.0
